Each structure is given as a SMILES string.

The subject of one assay is Human blood platelets. The assay can be described thus: Blood Platelet Aggregation (ADP induced, modification of Born and Cross). It counts as cell-based. Conditions: human PRP, ADP 2-4 μM. As to the method:
Reference: Modification of Born, G.V.R., and Cross, M. J., J. Physiol., 168, 178-195 (1963).
Test Object: Human blood platelets.
Procedure: Platelet aggregation is the initial step in thrombus formation and it is considered that compounds which prevent aggregation or reduce platelet adhesiveness may inhibit the initiation of the arteriosclerotic process. The effect of drugs on aggregation is measured in platelet rich plasma (PRP) containing adenosine diphosphate (ADP) which markedly increases aggregation in vitro and may be a physiological agent for doing so in vivo.
Human blood is collected from fasted normal blood donors in siliconized 50 ml. Vacutainers that contain 3.8% sodium citrate. Centrifugation at 500 g. for 3 minutes at 5° C. separates the red blood cells from the PRP. The supernatant PRP is pipetted off and the remainder is centrifuged at 1000 g. for 10 minutes at 25° C. to obtain platelet poor plasma for standarization of the automated Payton aggregometer. In the running of the platelet aggregation test a cell containing 1.0 ml. of PRP is stirred at 1,100 rpm and the test compound is added in 0.2 ml. of buffered saline to give an initial concentration of 5 × 10^-3 M, or 5 × 10^-4 M. After 3 minutes, a concentration of ADP predetermined to yield marked platelet aggregation (2 to 4 μM) is added in 0.1 ml. of buffered saline. The curve of light transmission at 610 mμ is followed for 6 minutes. Compounds found to be active at the initial concentration are run at lower concentrations.
Standard Compound: 2-4 μM ADP-Reference Compound.

Assay [1] relates to bronchoconstricting effects of a standard dose of acetylcholine. The assay can be described thus: Evaluation of Bronchodilator Activity (aerosol inhalation, method of Rosenthale et al.). It counts as in vivo. To be noted: guinea pig, acetylcholine i.v. dose producing ca. 30% bronchoconstriction. The source says: In using the compounds of the invention to produce bronchodilating effects in warm-blooded animals, they may be administered in a variety of dosage forms: oral, injectable, and aerosol inhalation. Aerosol inhalation is a preferred method because of its rapid onset of action, great potency, and specificity of action. The particular dosage to obtain the bronchodilating effect will vary with the particular compound employed, the particular animal involved, and the degree of bronchodilation desired. In the guinea pig, by aerosol inhalation, the dose to produce bronchodilation is from about 0.15 micrograms to about 25 micrograms, and preferably from about 0.15 to about 15 micrograms. The bronchodilation produced upon aerosol inhalation can be observed by the method of Rosenthale et al., J. Pharmacol. Exp. Ther., 178, 541 (1971). Using this procedure the following results were obtained:
*The dose (i.v.) of acetylcholine which produces a ca. 30%

By inhibition is commonly meant how much of the control response was suppressed. Take `CCCCC[C@H](O)/C=C/[C@H]1C(=O)C=C(c2ccccc2)[C@@H]1C/C=C\CCCC(=O)O` [7-{2β-[(3S)-3-Hydroxy-trans-1-Octenyl]-3-Oxo-5-Phenyl-4-Cyclopenten-1α-yl}-cis-5-Heptenoic Acid]: the inhibition at 18 µM in the assay on Human blood platelets (concentration 1.8 × 10^-5 M) was 22%. On to `C#CC1=CC(=O)[C@H](/C=C/[C@@H](O)CCCCC)[C@H]1C/C=C\CCCC(=O)O` [7-{5β-[(3S)-3-Hydroxy-trans-1-Octenyl]-2-Ethynyl-4-Oxo-2-Cyclopenten-1α-yl}-cis-5-Heptenoic Acid], for which the inhibition at 22 µM with Human blood platelets (concentration 2.2 × 10^-5 M) was 36%. As to `CCCCC[C@H](O)/C=C/[C@H]1C(=O)C=C(C)[C@@H]1C/C=C\CCCC(=O)O` [7-{5β-[(3S)-3-Hydroxy-trans-1-Octenyl]-2-Methyl-4-Oxo-2-Cyclopenten-1α-yl}-cis-5-Heptenoic Acid], the inhibition at 0.0057 µM with Human blood platelets (concentration 5.7 × 10^-9 M) is 56%. Besides, the “% Inhibition of the Bronchoconstricting effects of a standard dose of acetylcholine” value in assay [1] (dose 1.5 μg) is 36%; in assay [1] (dose 15 μg), 78%.

The values are drawn from patent publication US4138590A, “Prostaglandin derivatives” (American Home Products Corporation, priority 1977, dated 1979).
